Measured values taken from US20200352918A1, “COMPOUNDS AND METHODS FOR TREATING OR PREVENTING FIBROSIS” (priority 2019, published 2020).
Structures can show the parent of a compound that is named as a salt.

What was measured:
[1] = tested on: iFA phenotype of mesenchymal-like cells on 13 kPa hydrogels; assay: iFA-prevention phenotypic high-content drug screen (iFA model); format: cell-based, human; conditions: for Efficacy in secondary screen: assay repeated with compound sourced commercially or from additional library materials; for Dose response: 20 point dose course, picomolar to millimolar; for Prevention/rescue of the iFA phenotype: 3.75 μgm/ml IFNγ (FIG. 25C)
Description: Mesenchymal-like cells were cultured on 13 kPa functionalized polyacrylamide gels that were prepared as follows. 187.5 μl of 40% acrylamide, 60 μl of 2% bis-acrylamide and 8.55 μl of sodium bisulfate in a final volume of 990 μl of water was incubated for 20 min at room temperature to degas the mixture. To this mixture, 0.10% ammonium persulfate and 0.15% TEMED were added, mixed and 100 μl of the solution was added onto a 0.4% 3-(Trimethoxysily) propyl methacrylate pH 3.5 treated coverslip. A 2% dimethyl dichlorosilane in chloroform treated round glass coverslip was then inverted on the acrylamide solution and allowed to polymerize for 15 min between the two surfaces. The top coverslip was gently removed, and the bottom coverslips with the hydrogel were transferred to appropriate multi-well low adherent tissue culture plate containing coupling buffer (0.1 M sodium phosphate dibasic, 0.1 M sodium phosphate monobasic) pH 8. To functionalize the hydrogel, 1 part of 0.1 M p-benzoquinone in dioxane was added to the hydrogels containing 4 parts of coupling buffer and incubated at 37° C. for 30 min. The gel was then successively washed with 20% dioxane in water, water, 0.1 M sodium acetate buffer at pH 4.0 containing 1.0 M sodium chloride, 0.1 M sodium bicarbonate solution at pH 8.5 containing 1.0 M sodium chloride, and finally with coupling buffer at pH 7.5. The hydrogels were then coated with 0.1% gelatin for 2 hrs prior to seeding the cells. Cells were seeded at a density of 3000 cells/cm^2.
A phenotypic high-content drug screen was prepared to identify compounds capable of preventing the iFA phenotype in a 96-well format. An ImageXpress XL high-throughput imager with a 4× Plan objective (N/A 0.20) was used with image based focusing. Briefly, 100 μL media were plated in each well of 96 well plate using a Thermo Multidrop non-contact dispenser. Using a custom V&P pin tool mounted to a Beckman FX liquid handler, 1.5 μL compounds or DMSO were added. Mesenchymal-like cells were added as a suspension using the Multidrop at a density of 3.5×10^3 cells/well. The resulting compound concentration was 10 μM. Cells were imaged after 7 days of incubation at 37° C. and 5% CO2: A final of 0.5 μg/ml of Calcein AM and/or 10 μg/ml propidium iodide (viability dye) with 1 μg/ml Hoechst 33342 were added and imaged using the ImageXpress XL system. Data mining was performed using a custom module consisting of the following steps: The image background was removed using a top-hat filter with 25 μm round shape polisher. Next, cellular aggregates and individual spindle-shaped cells were identified. Aggregates of cells were defined by size with a cut-off of 60 to 200 micron and an intensity of at least 200 gray scales over background. Individual spindle-shaped cells were identified as smaller objects with cut-offs from 15 to 100 micron and a lower intensity of at least 70 gray scales over background.
Additional morphometric measurements were made by counting labeled cell nuclei and measuring total area covered with cells per well. The data resulting from the screen were batch exported through MetaXpress and uploaded into a Collaborative Drug Discovery (CDD) cloud based database (Ekins and Bunin, 2013, Methods in molecular biology 993, 139-154.). Hits were selected on a cut-off of more than 3 standard deviations from mean using data normalized to reference wells in each plate. IC50 values (the half maximal inhibitory concentration) from confirmation experiments were calculated from dose-response signal curves using the Prism software (GraphPad Software).
Signal-to-background (S/B) ratio, standard variation and variation coefficients were calculated as the signal of DMSO treated wells divided by the signal of the hit compound (AA5) treated wells. […]

iFA model = assay: Fibrotic marker, cytokine and repair modulator expression in the iFA model (qPCR, immunoblotting, luminex, immunofluorescence); format: cell-based, human; conditions: 3.75 μgm/ml IFNγ vs DMSO-treated controls
Description: The Milliplex human cytokine/chemokine Panel IV, human TIMP Panel 2, and human TGFβ 1,2,3 magnetic bead kits (EMD Millipore) were used per manufacturer's instructions. Prior to plating, all samples tested for human TGFβ only were activated and neutralized with 1.0 N HCl and 1.0 N NaOH, respectively. Briefly, 25 μl of undiluted or treated cell culture supernatant samples were mixed with 25 μl of magnetic beads and allowed to incubate overnight at 4° C. while shaking. After washing the plates with wash buffer in a Biotek ELx405 washer, 25 μl of biotinylated detection antibody was added and incubated for 1 hour at room temperature while shaking. 25 μl of streptavidin-phycoerythrin conjugate was then added to the reaction mixture and incubated for another 30 minutes at room temperature while shaking. Following additional washes, beads were resuspended in sheath fluid, and fluorescence was quantified using a Luminex 200 instrument. Similarly, a custom magnetic Luminex assay kit of select analytes (R&D Systems) was used per manufacturer's instructions. Cell culture supernatants were prepared with a 2-fold dilution. 50 μl of diluted sample were added to 50 μl of provided micro-particle cocktail and incubated for 2 hours at room temperature while shaking. After washing with wash buffer, 50 μl of biotin antibody cocktail was added and incubated for 1 hour at room temperature while shaking. Following additional washes, 50 μl of diluted Streptavidin-PE was then added for incubation for 30 minutes at room temperature while shaking. The plate was then washed again and the micro-particles resuspended in 100 μl wash buffer. After an additional 2-minute incubation while shaking, the data was acquired using a Luminex 200 instrument.
In-vitro cultures of PF and cells in the iFA model were washed once with PBS and total RNA from the samples were extracted using the RNeasy Mini Kit (Qiagen) according to the manufacturer's instructions. For the lung slice cultures (LSC), tissues were snap-frozen after treatment and stored at −80° C. until RNA isolation. Lung slices were homogenized using a handheld homogenizer and passing the homogenate through a Qiashredder (Qiagen). Total RNA from the LSC and cells from the disease model were extracted using the RNeasy Mini Kit (Qiagen) according to the manufacturer's instructions. The RNA concentrations were measured on a NanoDrop ND-1000 spectrophotometer. Single-stranded cDNA was synthesized from 200 ng of total RNA using Superscript IV and random hexamer primers (Invitrogen) in a volume of 20 μl. cDNA was then used for qRT-PCR analysis. PCR reactions were performed using Taqman Gene Expression Assay mix (Applied Biosystems) according to the manufacturer's instructions.
qRT-PCR reactions were performed using the StepOnePlus (Applied Biosystems). Relative gene expression was calculated using the 2^−ΔΔCt method, with 18S Cat. #4331182 (Invitrogen) as housekeeping gene. For the RT^2qPCR arrays, cDNA from DMSO and AA5 treated iFA and was added to the RT^2 qPCR iTaq Universal SYBR green Master Mix (Biorad). 20 μl of the experimental cocktail was added to each well of the Fibrosis PCR (Qiagen). Real-Time PCR was performed on the StepOnePlus qPCR system (Applied Biosystems) using SYBR green detection according to the manufacturer's recommendations. All data from the PCR was collected and analyzed by SA Bioscience's PCR Array Data Analysis Web Portal.
Cells grown on coverslips were fixed in 4% paraformaldehyde (PFA) for 10 min at room temperature and washed three times with TBS buffer supplemented with 0.1% Tween 20 (TBST). Lung samples were fixed overnight in 4% PFA at room temperature, washed 3 times in PBS, dehydrated and then infiltrated and embedded with wax. Five-micron sections were collected on glass slides, deparaffinized and rehydrated. Heat-induced epitope retrieval was performed using 1 mM EDTA in a microwave. […]

[2] = library compound plated with cells on day 1 on hydrogel, phenotype on day 7, 10 μM

Molecule | Efficacy in secondary screen [1] | Efficacy in primary screen [1, 2] | also measured
NCCCC(=O)O [γ-Aminobutyric acid] | + | +++ (+++ = strong effect) | –
CN(C)c1ccc(C(=C2C=CC(=[N+](C)C)C=C2)c2ccc(N(C)C)cc2)cc1.[Cl-] | ++ (++ = moderate effect) | +++ (+++ = strong effect) | –
COC(=O)/C=C/c1cc(O)ccc1O | ++ (++ = moderate effect) | +++ (+++ = strong effect) | Dose response [1]: ++ (++ = moderate effect)
Cc1cc(C2CCCCC2)n(O)c(=O)c1.NCCO [Ciclopirox ethanolamine., Ciclopirox ethanolamine] | ++ (++ = moderate effect) | +++ (+++ = strong effect) | –
CCCNC(=O)NS(=O)(=O)c1ccc(Cl)cc1 [Chlorpropamide] | + | +++ (+++ = strong effect) | –
N#CC(C#N)=C(N)/C(C#N)=C/c1cc(O)c(O)c(O)c1 [Tyrphostin 51] | + | +++ (+++ = strong effect) | –
COc1ccc2c(c1)c(CC(=O)O)c(C)n2Cc1ccc(Cl)cc1 [1-(4-Chlorobenzyl)-5-methoxy-2-methylindole-3-acetic acid] | + | +++ (+++ = strong effect) | –
S=C(Nc1ccccc1)Nc1nccs1 [1-Pheny1-3-(2-thiazolyl)-2-thiourea] | + | +++ (+++ = strong effect) | –
CN1CCC2(C)c3cc(O)ccc3N(C)C12.O=C(O)/C=C/C(=O)O (single isomer, unassigned; (-)) [(−)Eseroline fumarate salt., (−)Eseroline fumarate salt] | ++ (++ = moderate effect) | +++ (+++ = strong effect) | –
CN1CCN(c2cccc(Nc3nc4c(-c5ccc(S(C)(=O)=O)cc5)cccn4n3)c2)CC1 [CEP-33779 JAK2 Inhibitor] | ++ (++ = moderate effect) | +++ (+++ = strong effect) | –
C[C@@H](N)[C@H]1CC[C@H](C(=O)Nc2ccncc2)CC1 [Y-27632 Rock Inhibitor] | ++ (++ = moderate effect) | +++ (+++ = strong effect) | –
CSCC[C@@H](N)C(=O)O [D-methionine] | ++ (++ = moderate effect) | – | Efficacy in primary screen ([1]; 168 h, 10 µM): +++ (+++ = strong effect)
CC(C)(CO)Cc1cc(C(C)(C)C)c(O)c(C(C)(C)C)c1 [CGP-7930] | + | +++ (+++ = strong effect) | –
NC(CP(=O)(O)O)C(=O)O (racemic) [±)-2-Amino-3-phosphonopropionic acid] | + | +++ (+++ = strong effect) | –
O=P1(N(CCCl)CCCl)NCCCO1 (stereo not drawn) [Cyclophosphamide] | + | +++ (+++ = strong effect) | –
CC(NC(C)(C)C)C(=O)c1cccc(Cl)c1 (stereo not drawn) [Bupropion hydrochloride] | + | +++ (+++ = strong effect) | –
CCCCC/C=C\C/C=C\C/C=C\C/C=C\CCCC(=O)NCc1ccc(O)c(OC)c1 [Arvanil] | + | +++ (+++ = strong effect) | –
COC(=O)Nc1nc2ccc(Sc3ccccc3)cc2[nH]1 [Fenbendazole., Fenbendazole] | ++ (++ = moderate effect) | +++ (+++ = strong effect) | –
CC(C)(C=O)Cc1cc(C(C)(C)C)c(O)c(C(C)(C)C)c1 [CGP-13501] | + | +++ (+++ = strong effect) | –
Recombinant Human IFN-gamma Protein: Recombinant Human IFN-gamma Protein; IFNs are known anti-fibrotic cytokines (protein, UniProt P01579 24-161, looked up) Interferon gamma: QDPYVKEAENLKKYFNAGHSDVADNGTLFLGILKNWKEESDRKIMQSQIVSFYFKLFKNFKDDQSIQKSVETIKEDMNVKFFNSNKKKRDDFEKLTNYSVTDLNVQRKAIHELIQVMAELSPAAKTGKRKRSQMLFRG | ++ (++ = moderate effect) | +++ (+++ = strong effect) | Prevention/rescue of the iFA phenotype [1]: Partial prevention of the iFA phenotype; Prevention/rescue of the iFA phenotype ([1]; listed as recombinant IFNγ): partially rescued the iFA phenotype; Dose response [1]: +; α-SMA and Collagen I (IF) (iFA model): reduced
